Species on record: Rattus norvegicus
Assay: DrugMatrix - Regimen: Daily Repeat
Assay type: toxicity, organism-based, Sprague-Dawley
Set-up: regimen Daily Repeat, gender Male, age 6-8 weeks
Conditions: in vivo, po, route oral GAVAGE, vehicle .5 % CMC; for ABSOLUTE BASOPHIL / ABSOLUTE EOSINOPHIL / ABSOLUTE LYMPHOCYTE / ABSOLUTE MONOCYTE / ABSOLUTE SEGMENTED NEUTROPHIL / BASOPHIL / EOSINOPHIL / ERYTHROCYTE COUNT / HEMATOCRIT / HEMOGLOBIN / LEUKOCYTE COUNT / LYMPHOCYTE / MEAN CORPUSCULAR HEMOGLOBIN / MEAN CORPUSCULAR HEMOGLOBIN CONCENTRATION / MONOCYTE / NEUTROPHIL / NUCLEATED RED BLOOD CELLS / PLATELET COUNT: tissue Blood; for ALANINE AMINOTRANSFERASE / ALBUMIN / ALKALINE PHOSPHATASE / ASPARTATE AMINOTRANSFERASE / BLOOD UREA NITROGEN / CARBON DIOXIDE / CHLORIDE / CHOLESTEROL / CREATINE PHOSPHOKINASE / CREATININE / GLUCOSE / LACTATE DEHYDROGENASE / LIPASE / PHOSPHORUS / POTASSIUM / SODIUM / TOTAL BILIRUBIN / TOTAL PROTEIN / URIC ACID: tissue Plasma
[1] = 3 mg/kg, 120 h, dose level Low, time 5 day
[2] = 2000 mg/kg, 72 h, dose level High, time 3 day
[3] = 2000 mg/kg, 120 h, dose level High, time 5 day

Structure (SMILES): COc1cc2nc(N3CCN(C(=O)c4ccco4)CC3)nc(N)c2cc1OC [PRAZOSIN]
- ABSOLUTE BASOPHIL [1]: 0 CELLS/uL
- ABSOLUTE EOSINOPHIL [1]: 228.67 CELLS/uL
- ABSOLUTE LYMPHOCYTE [1]: 11545.33 CELLS/uL
- ABSOLUTE MONOCYTE [1]: 136 CELLS/uL
- ABSOLUTE SEGMENTED NEUTROPHIL [1]: 1690 CELLS/uL
- BASOPHIL [1]: 0%
- EOSINOPHIL [1]: 1.67%
- ERYTHROCYTE COUNT [1]: 5.54 x10E6/uL
- HEMATOCRIT [1]: 34.63%
- HEMOGLOBIN [1]: 13.5 G/DL
- LEUKOCYTE COUNT [1]: 13.6 x10E3/uL
- LYMPHOCYTE [1]: 85.33%
- MEAN CORPUSCULAR HEMOGLOBIN [1]: 24.47 pg
- MEAN CORPUSCULAR HEMOGLOBIN CONCENTRATION [1]: 39.03 G/DL
- MONOCYTE [1]: 1%
- NEUTROPHIL [1]: 12%
- NUCLEATED RED BLOOD CELLS [1]: 0 /100WBC
- PLATELET COUNT [1]: 1245 x10E3/uL
- ALANINE AMINOTRANSFERASE [1]: 57.33 u/L
- ALBUMIN [1]: 4.23 G/DL
- ALKALINE PHOSPHATASE [1]: 336.33 u/L
- ASPARTATE AMINOTRANSFERASE [1]: 106.67 u/L
- BLOOD UREA NITROGEN [1]: 16.67 mg/dL
- CARBON DIOXIDE [1]: 21.67 mmol/L
- CHLORIDE [1]: 104.33 MEQ/L
- CHOLESTEROL [1]: 73 mg/dL
- CREATINE PHOSPHOKINASE [1]: 877.67 u/L
- CREATININE [1]: 0.19 mg/dL
- GLUCOSE [1]: 131.67 mg/dL
- LACTATE DEHYDROGENASE [1]: 643.67 u/L
- LIPASE [1]: 9.67 u/L
- PHOSPHORUS [1]: 11.7 mg/dL
- POTASSIUM [1]: 6.1 MEQ/L
- SODIUM [1]: 144.23 MEQ/L
- TOTAL BILIRUBIN [1]: 0.23 mg/dL
- TOTAL PROTEIN [1]: 6.13 G/DL
- URIC ACID [1]: 1.5 mg/dL
- ABSOLUTE BASOPHIL [2]: 0 CELLS/uL
- ABSOLUTE EOSINOPHIL [2]: 93.33 CELLS/uL
- ABSOLUTE LYMPHOCYTE [2]: 7483.33 CELLS/uL
- ABSOLUTE MONOCYTE [2]: 100 CELLS/uL
- ABSOLUTE SEGMENTED NEUTROPHIL [2]: 856.67 CELLS/uL
- BASOPHIL [2]: 0%
- EOSINOPHIL [2]: 1%
- ERYTHROCYTE COUNT [2]: 5.18 x10E6/uL
- HEMATOCRIT [2]: 33.2%
- HEMOGLOBIN [2]: 13 G/DL
- LEUKOCYTE COUNT [2]: 8.53 x10E3/uL
- LYMPHOCYTE [2]: 87.33%
- MEAN CORPUSCULAR HEMOGLOBIN [2]: 25.1 pg
- MEAN CORPUSCULAR HEMOGLOBIN CONCENTRATION [2]: 39.17 G/DL
- MONOCYTE [2]: 1.33%
- NEUTROPHIL [2]: 10.33%
- NUCLEATED RED BLOOD CELLS [2]: 0 /100WBC
- PLATELET COUNT [2]: 1248.33 x10E3/uL
- ALANINE AMINOTRANSFERASE [2]: 55.33 u/L
- ALBUMIN [2]: 3.8 G/DL
- ALKALINE PHOSPHATASE [2]: 290.33 u/L
- ASPARTATE AMINOTRANSFERASE [2]: 131.67 u/L
- BLOOD UREA NITROGEN [2]: 18.33 mg/dL
- CARBON DIOXIDE [2]: 24 mmol/L
- CHLORIDE [2]: 105 MEQ/L
- CHOLESTEROL [2]: 68.33 mg/dL
- CREATINE PHOSPHOKINASE [2]: 1224.33 u/L
- CREATININE [2]: 0.19 mg/dL
- GLUCOSE [2]: 153 mg/dL
- LACTATE DEHYDROGENASE [2]: 177.67 u/L
- LIPASE [2]: 9.67 u/L
- PHOSPHORUS [2]: 10.87 mg/dL
- POTASSIUM [2]: 5.14 MEQ/L
- SODIUM [2]: 144.9 MEQ/L
- TOTAL BILIRUBIN [2]: 0.17 mg/dL
- TOTAL PROTEIN [2]: 5.37 G/DL
- URIC ACID [2]: 1.17 mg/dL
- ABSOLUTE BASOPHIL [3]: 0 CELLS/uL
- ABSOLUTE EOSINOPHIL [3]: 0 CELLS/uL
- ABSOLUTE LYMPHOCYTE [3]: 9169.67 CELLS/uL
- ABSOLUTE MONOCYTE [3]: 0 CELLS/uL
- ABSOLUTE SEGMENTED NEUTROPHIL [3]: 630.33 CELLS/uL
- BASOPHIL [3]: 0%
- EOSINOPHIL [3]: 0%
- ERYTHROCYTE COUNT [3]: 5.58 x10E6/uL
- HEMATOCRIT [3]: 34%
- HEMOGLOBIN [3]: 13.3 G/DL
- LEUKOCYTE COUNT [3]: 9.8 x10E3/uL
- LYMPHOCYTE [3]: 93.33%
- MEAN CORPUSCULAR HEMOGLOBIN [3]: 23.83 pg
- MEAN CORPUSCULAR HEMOGLOBIN CONCENTRATION [3]: 39.13 G/DL
- MONOCYTE [3]: 0%
- NEUTROPHIL [3]: 6.67%
- NUCLEATED RED BLOOD CELLS [3]: 0 /100WBC
- PLATELET COUNT [3]: 1205.67 x10E3/uL
- ALANINE AMINOTRANSFERASE [3]: 63.33 u/L
- ALBUMIN [3]: 3.8 G/DL
- ALKALINE PHOSPHATASE [3]: 286.33 u/L
- ASPARTATE AMINOTRANSFERASE [3]: 139.33 u/L
- BLOOD UREA NITROGEN [3]: 16 mg/dL
- CARBON DIOXIDE [3]: 21.33 mmol/L
- CHLORIDE [3]: 104.67 MEQ/L
- CHOLESTEROL [3]: 64.67 mg/dL
- CREATINE PHOSPHOKINASE [3]: 1202.67 u/L
- CREATININE [3]: 0.19 mg/dL
- GLUCOSE [3]: 152 mg/dL
- LACTATE DEHYDROGENASE [3]: 204 u/L
- LIPASE [3]: 9 u/L
- PHOSPHORUS [3]: 10.4 mg/dL
- POTASSIUM [3]: 5.65 MEQ/L
- SODIUM [3]: 146.07 MEQ/L
- TOTAL BILIRUBIN [3]: 0.2 mg/dL
- TOTAL PROTEIN [3]: 5.3 G/DL
- URIC ACID [3]: 0.73 mg/dL

Source: ChEMBL document CHEMBL3885881, “DrugMatrix”
